Test results as given in publication PMC12808100, “The non-catalytic DNA polymerase ε subunit is an NPF motif recognition protein” (Nature Communications, 2025).
Residues, ends and D or L forms follow the SMILES beside them.

Legend:
SSBP4 = SSBP4 (Homo sapiens, UniProt Q86U70+Q9BWG4); experiment: nHU-MS peptide bait, prey SSBP4
SSBP2 = SSBP2 (Homo sapiens, UniProt P81877+Q86U70); experiment: nHU-MS peptide bait, prey SSBP2
AURKA = AURKA (Homo sapiens, UniProt O14965); experiment: nHU-MS peptide bait, prey AURKA
Sequence of AURKA (O14965 whole entry): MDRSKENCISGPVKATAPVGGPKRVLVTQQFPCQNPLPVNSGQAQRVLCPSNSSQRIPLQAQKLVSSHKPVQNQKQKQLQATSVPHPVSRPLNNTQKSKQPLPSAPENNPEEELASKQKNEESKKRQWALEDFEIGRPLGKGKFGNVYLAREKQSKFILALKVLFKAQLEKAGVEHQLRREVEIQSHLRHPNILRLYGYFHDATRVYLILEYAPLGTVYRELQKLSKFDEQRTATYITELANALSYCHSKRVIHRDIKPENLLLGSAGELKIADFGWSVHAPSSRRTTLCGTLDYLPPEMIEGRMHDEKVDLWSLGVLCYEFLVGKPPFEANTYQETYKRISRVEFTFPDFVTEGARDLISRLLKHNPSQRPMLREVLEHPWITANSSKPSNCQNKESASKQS

CCDC174 = CCDC174 (Homo sapiens, UniProt Q6PII3); experiment: nHU-MS peptide bait, prey CCDC174
Sequence of CCDC174 (Q6PII3 whole entry): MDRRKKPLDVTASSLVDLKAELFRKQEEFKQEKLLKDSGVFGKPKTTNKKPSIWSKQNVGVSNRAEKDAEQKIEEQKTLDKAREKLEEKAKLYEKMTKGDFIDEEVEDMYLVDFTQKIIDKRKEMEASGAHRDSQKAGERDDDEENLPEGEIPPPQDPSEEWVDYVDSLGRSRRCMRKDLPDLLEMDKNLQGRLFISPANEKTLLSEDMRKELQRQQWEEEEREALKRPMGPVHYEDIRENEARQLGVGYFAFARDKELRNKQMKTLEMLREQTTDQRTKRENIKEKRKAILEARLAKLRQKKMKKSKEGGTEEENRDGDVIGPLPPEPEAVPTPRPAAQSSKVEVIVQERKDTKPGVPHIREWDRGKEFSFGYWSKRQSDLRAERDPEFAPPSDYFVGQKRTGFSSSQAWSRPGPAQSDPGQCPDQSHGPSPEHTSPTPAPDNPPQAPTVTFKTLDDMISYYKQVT

PLEK = PLEK (Homo sapiens, UniProt P08567); experiment: nHU-MS peptide bait, prey PLEK
Sequence of PLEK (P08567 whole entry): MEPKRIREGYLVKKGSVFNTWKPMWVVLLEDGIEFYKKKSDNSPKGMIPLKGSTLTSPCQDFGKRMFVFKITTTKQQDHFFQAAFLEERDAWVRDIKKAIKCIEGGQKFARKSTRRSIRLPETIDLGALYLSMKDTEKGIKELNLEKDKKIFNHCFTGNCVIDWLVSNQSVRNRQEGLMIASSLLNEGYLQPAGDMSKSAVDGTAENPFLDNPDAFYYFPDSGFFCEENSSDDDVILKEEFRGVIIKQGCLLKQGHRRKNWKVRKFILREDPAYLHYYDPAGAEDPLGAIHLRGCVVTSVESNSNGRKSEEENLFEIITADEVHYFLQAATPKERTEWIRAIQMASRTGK

EHD1 = target: T1, EHD1 (Homo sapiens, UniProt Q9H4M9); experiment: nHU-MS peptide bait, prey EHD1; settings: for BI: prey EHD1, MS7_Varjosalo
T1 sequence (Q9H4M9 1-534): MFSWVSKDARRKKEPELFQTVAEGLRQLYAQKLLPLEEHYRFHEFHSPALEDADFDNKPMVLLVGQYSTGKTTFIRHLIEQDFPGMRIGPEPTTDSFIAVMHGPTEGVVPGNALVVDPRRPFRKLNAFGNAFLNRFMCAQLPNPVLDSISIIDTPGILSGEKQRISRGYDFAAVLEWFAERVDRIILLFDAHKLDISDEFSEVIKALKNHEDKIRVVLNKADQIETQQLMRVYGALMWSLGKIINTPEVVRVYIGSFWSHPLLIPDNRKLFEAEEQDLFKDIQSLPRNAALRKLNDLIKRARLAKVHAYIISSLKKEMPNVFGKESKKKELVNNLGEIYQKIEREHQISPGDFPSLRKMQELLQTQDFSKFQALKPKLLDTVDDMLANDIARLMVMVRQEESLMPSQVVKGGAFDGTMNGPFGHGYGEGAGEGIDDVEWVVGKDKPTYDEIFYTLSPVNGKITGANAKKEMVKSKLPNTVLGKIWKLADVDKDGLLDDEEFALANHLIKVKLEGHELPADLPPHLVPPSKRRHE

PPP2R2A = target: T2, PPP2R2A (Homo sapiens, UniProt P63151); experiment: nHU-MS peptide bait, prey PPP2R2A; settings: for Kd: pKapp
T2 sequence (P63151 1-447): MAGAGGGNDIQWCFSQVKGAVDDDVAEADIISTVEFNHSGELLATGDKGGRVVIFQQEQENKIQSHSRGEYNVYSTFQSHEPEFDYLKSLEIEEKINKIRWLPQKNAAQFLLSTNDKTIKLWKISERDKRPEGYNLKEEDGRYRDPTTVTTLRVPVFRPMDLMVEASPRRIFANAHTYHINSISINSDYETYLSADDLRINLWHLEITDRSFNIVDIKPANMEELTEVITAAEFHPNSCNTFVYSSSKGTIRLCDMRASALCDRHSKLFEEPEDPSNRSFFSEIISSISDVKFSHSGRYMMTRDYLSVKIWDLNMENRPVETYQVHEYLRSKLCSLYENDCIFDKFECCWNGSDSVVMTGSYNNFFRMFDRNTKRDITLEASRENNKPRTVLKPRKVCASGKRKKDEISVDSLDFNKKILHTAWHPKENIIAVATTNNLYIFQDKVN

HSPA5 = HSPA5 (Homo sapiens, UniProt P11021); experiment: nHU-MS peptide bait, prey HSPA5
Sequence of HSPA5 (P11021 19-654): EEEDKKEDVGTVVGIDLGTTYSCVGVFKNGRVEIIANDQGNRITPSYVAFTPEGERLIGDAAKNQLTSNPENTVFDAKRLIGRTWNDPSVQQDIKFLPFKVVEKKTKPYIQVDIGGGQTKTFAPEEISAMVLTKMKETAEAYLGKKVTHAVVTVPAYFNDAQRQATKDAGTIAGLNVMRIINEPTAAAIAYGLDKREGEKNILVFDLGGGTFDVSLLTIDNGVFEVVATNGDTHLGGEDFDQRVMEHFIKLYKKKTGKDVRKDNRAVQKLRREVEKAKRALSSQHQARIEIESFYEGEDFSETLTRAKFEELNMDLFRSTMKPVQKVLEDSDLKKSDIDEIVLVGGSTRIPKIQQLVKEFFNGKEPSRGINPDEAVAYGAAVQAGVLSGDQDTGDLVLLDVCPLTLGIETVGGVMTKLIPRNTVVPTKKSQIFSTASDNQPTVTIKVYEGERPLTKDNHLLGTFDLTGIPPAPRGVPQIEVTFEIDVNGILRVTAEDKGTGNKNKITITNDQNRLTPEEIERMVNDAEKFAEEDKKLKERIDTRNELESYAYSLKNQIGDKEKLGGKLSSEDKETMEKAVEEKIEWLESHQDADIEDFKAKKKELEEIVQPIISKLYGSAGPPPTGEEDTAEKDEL

Sequence of SSBP4 (Q9BWG4 whole entry): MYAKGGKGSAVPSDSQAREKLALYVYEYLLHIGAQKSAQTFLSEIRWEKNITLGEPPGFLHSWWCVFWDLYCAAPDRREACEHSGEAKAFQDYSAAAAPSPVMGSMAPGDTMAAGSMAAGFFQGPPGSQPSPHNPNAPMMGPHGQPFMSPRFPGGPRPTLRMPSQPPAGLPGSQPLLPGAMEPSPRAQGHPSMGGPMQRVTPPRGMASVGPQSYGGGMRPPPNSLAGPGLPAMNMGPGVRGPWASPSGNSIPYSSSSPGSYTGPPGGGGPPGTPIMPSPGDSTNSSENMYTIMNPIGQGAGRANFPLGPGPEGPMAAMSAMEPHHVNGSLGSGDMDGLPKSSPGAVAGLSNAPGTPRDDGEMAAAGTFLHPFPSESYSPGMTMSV
Sequence of SSBP4 (Q86U70 whole entry): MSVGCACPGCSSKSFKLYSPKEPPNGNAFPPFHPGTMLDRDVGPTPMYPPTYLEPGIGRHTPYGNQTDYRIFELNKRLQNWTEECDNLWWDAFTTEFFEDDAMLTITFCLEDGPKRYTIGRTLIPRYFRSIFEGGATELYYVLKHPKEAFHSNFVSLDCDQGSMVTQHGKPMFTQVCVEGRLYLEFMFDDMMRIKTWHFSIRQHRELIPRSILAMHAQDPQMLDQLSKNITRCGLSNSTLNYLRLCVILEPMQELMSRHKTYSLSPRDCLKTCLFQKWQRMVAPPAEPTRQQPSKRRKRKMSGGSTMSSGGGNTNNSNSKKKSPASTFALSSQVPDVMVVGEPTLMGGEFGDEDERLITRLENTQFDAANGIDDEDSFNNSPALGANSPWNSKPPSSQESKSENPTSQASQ
Sequence of SSBP2 (P81877 whole entry): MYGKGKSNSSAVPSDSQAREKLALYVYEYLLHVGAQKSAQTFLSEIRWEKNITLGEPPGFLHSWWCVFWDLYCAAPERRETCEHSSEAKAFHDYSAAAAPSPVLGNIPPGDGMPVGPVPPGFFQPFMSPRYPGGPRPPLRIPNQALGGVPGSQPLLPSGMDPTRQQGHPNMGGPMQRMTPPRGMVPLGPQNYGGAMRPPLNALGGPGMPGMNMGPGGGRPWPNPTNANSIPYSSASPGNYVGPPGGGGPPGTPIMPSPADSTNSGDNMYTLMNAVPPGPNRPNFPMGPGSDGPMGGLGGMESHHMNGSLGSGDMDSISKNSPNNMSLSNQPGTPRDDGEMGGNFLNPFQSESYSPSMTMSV
Sequence of SSBP2 (Q86U70 whole entry): as the sequence (Q86U70 whole entry) above

Row | Kd (SSBP4) [µM] | BI (SSBP4; prey SSBP4, MS8_Varjosalo) | Kd (SSBP2) [µM] | BI (SSBP2; prey SSBP2, MS8_Varjosalo) | Kd (AURKA) [µM] | BI (AURKA; prey AURKA, MS8_Varjosalo) | Kd (CCDC174) [µM] | BI (CCDC174; prey CCDC174, MS7_Varjosalo) | Kd (PLEK) [µM] | BI (PLEK; prey PLEK, MS7_Varjosalo) | Kd (EHD1) [µM] | BI (EHD1) | BI (PPP2R2A; MS5_Varjosalo) | BI (PPP2R2A; MS7_Varjosalo) | Kd (PPP2R2A; MS5_Varjosalo) [µM] | Kd (PPP2R2A; MS7_Varjosalo) [µM] | Kd (HSPA5) [µM] | BI (HSPA5; prey HSPA5, MS5_Varjosalo) | SMILES
1 | 12.2 | 0.451 | 18.9 | 0.3462 | 28.6 | 0.2591 |  |  |  |  |  |  |  |  |  |  |  |  | CSCC[C@H](NC(=O)[C@@H]1CCCN1C(=O)[C@@H](NC(=O)[C@@H]1CCCN1C(=O)[C@@H]1CCCN1C(=O)[C@@H]1CCCN1C(=O)[C@H](C)NC(=O)[C@H](Cc1ccccc1)NC(=O)[C@H](CCC(=O)O)NC(=O)[C@@H](NC(=O)[C@H](CC(C)C)NC(=O)[C@@H](N)Cc1c[nH]cn1)[C@@H](C)O)[C@@H](C)O)C(=O)N[C@H](C(=O)N[C@@H](CC(=O)O)C(=O)N[C@@H](Cc1c[nH]cn1)C(=O)N[C@@H](CC(C)C)C(=O)N[C@H](C(=O)N[C@@H](C)C(=O)N[C@@H](CO)C(=O)N[C@@H](CC(N)=O)C(=O)N1CCC[C@H]1C(=O)N[C@@H](Cc1ccccc1)C(=O)N[C@@H](CCC(=O)O)C(=O)N[C@@H](CC(=O)O)C(=O)N[C@@H](CC(=O)O)C(=O)N[C@@H](Cc1ccccc1)C(=O)NCC(=O)N[C@@H](C)C(=O)N1CCC[C@H]1C(=O)N[C@@H](CCCCN)C(N)=O)C(C)C)C(C)C [PYGO2 57-86]
2 |  |  |  |  |  |  | 10.9 | 0.4787 | 9.44 | 0.5145 | 39.4 | 0.2025 |  |  |  |  |  |  | CC[C@H](C)[C@H](NC(=O)[C@@H](N)CCCNC(=N)N)C(=O)N1CCC[C@H]1C(=O)N[C@H](C(=O)N[C@@H](CC(C)C)C(=O)N[C@@H](CC(N)=O)C(=O)N1CCC[C@H]1C(=O)N[C@@H](Cc1ccccc1)C(=O)N[C@@H](CCC(=O)O)C(=O)N[C@@H](CO)C(=O)N1CCC[C@H]1C(=O)N[C@@H](CO)C(=O)N[C@@H](CC(=O)O)C(=O)N[C@@H](Cc1ccc(O)cc1)C(=O)N[C@@H](CO)C(=O)N[C@@H](CC(N)=O)C(=O)N[C@@H](CC(C)C)C(=O)N[C@@H](Cc1c[nH]cn1)C(=O)N[C@@H](CCC(=O)O)C(=O)N[C@@H](CCC(N)=O)C(=O)N[C@H](C(N)=O)[C@@H](C)O)C(C)C [BORA] (H-RIPVLNPFESPSDYSNLHEQT-NH2)
3 |  |  |  |  |  |  |  |  |  |  | 24.3 | 0.2916 | 0.2309 | 0.2507 | 33.3 | 29.9 | 19.9 | 0.3347 | CC[C@H](C)[C@H](NC(=O)[C@H](Cc1ccccc1)NC(=O)[C@@H]1CCCN1C(=O)[C@H](CC(N)=O)NC(=O)[C@@H]1CCCN1C(=O)[C@H](CO)NC(=O)[C@H](CO)NC(=O)[C@@H](N)CCCNC(=N)N)C(=O)N[C@H](C(=O)NCC(=O)N[C@@H](CC(C)C)C(=O)N[C@H](C(=O)N[C@@H](CCCNC(=N)N)C(=O)N[C@H](C(=O)N[C@@H](CC(N)=O)C(=O)N1CCC[C@H]1C(=O)N[C@@H](Cc1ccccc1)C(=O)N[C@@H](CO)C(=O)N[C@@H](CC(=O)O)C(=O)N[C@@H](CCCNC(=N)N)C(=O)N[C@H](C(=O)N[C@@H](C)C(=O)N[C@@H](C)C(=O)N1CCC[C@H]1C(=O)NCC(=O)N[C@@H](CC(N)=O)C(=O)N1CCC[C@H]1C(=O)N[C@@H](Cc1ccccc1)C(=O)N[C@@H](CCCNC(=N)N)C(=O)N[C@@H](C)C(=O)N[C@@H](CCCCN)C(=O)N[C@@H](CO)C(N)=O)[C@@H](C)O)[C@@H](C)O)[C@@H](C)O)[C@@H](C)O [SYNJ1_1390-1421] (H-RSSPNPFITGLTRTNPFSDRTAAPGNPFRAKS-NH2)
